These results are taken from ChEMBL document CHEMBL1201862, “PubChem BioAssay data set” (2004).

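Values below derive from 48-hour exposures of cells grown in 96-well plates, with endpoints linearly interpolated between the two concentrations bracketing the appropriate inhibition level. Here, GI50 denotes the concentration required for 50% inhibition of growth.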 Activity calls are given as the source filed them. No stated cut-off is given here; in the data, active = GI50 up to about 1.1 µM and inactive = higher.

Common to all, as to assay: growth of human tumour cells (NCI), 48 h
Assay [1] has as its system U-251.
Assay [2] relates to IGROV-1.
The test system of assay [3] is UACC-62.
Assay [4] has as its system RXF 393.
For assay [5], the system named is OVCAR-5.
The test system of assay [6] is SF-268.
Assay [7] deals with SK-MEL-5.
Assay [8] deals with A498.
For assay [9], the system named is DU-145.
The test system of assay [10] is SR.
Assay [11] has as its system KM12.
The test system of assay [12] is K562.
Assay [13] relates to MDA-MB-231.
The subject of assay [14] is MDA-N.
Assay [15] relates to Hs-578T.
In assay [16] the test system is UACC-257.
Assay [17] deals with MDA-MB-435.
The subject of assay [18] is UO-31.
In assay [19] the test system is 786-0.
Assay [20] concerns HOP-62.
The subject of assay [21] is M14.
Assay [22] relates to EKVX.
The test system of assay [23] is ACHN.
The subject of assay [24] is PC-3.
The subject of assay [25] is SK-OV-3.
Assay [26] concerns MOLT-4.
In assay [27] the test system is RPMI-8226.
For assay [28], the system named is SK-MEL-28.
Assay [29] has as its system SW-620.
Assay [30] relates to OVCAR-8.
In assay [31] the test system is HCT-116.
Assay [32] has as its system SN12C.
For assay [33], the system named is LOX IMVI.
Assay [34] relates to HL-60.
The test system of assay [35] is SNB-19.
Assay [36] deals with HOP-92.
Assay [37] relates to MCF7.
Assay [38] has as its system SK-MEL-2.
Assay [39] concerns HCT-15.
For assay [40], the system named is CCRF-CEM.
For assay [41], the system named is SNB-75.
Assay [42] deals with HT-29.
The test system of assay [43] is CAKI-1.
For assay [44], the system named is A549.
Assay [45] has as its system TK-10.
The test system of assay [46] is NCI-H460.

On to `N#Cc1nc(-c2ccsc2)oc1N`, for which the GI50 in [1] is > 100 µM (inactive); in assay [2], 71.8 µM (inactive); in assay [3] it was > 100 µM (inactive); in [4] it was > 100 µM (inactive); in [5] it was > 100 µM (inactive); in assay [6], > 100 µM (inactive). In addition, the GI50 in [7], in [8], in [9], in assay [10], in assay [11] and in assay [12] was > 100 µM (inactive) each time. The GI50 in assay [13] is > 100 µM (inactive); in assay [14], > 100 µM (inactive); in [15] it was > 100 µM (inactive); in assay [16], > 100 µM (inactive); in [17] it was > 100 µM (inactive); in assay [18] it was 64.1 µM (inactive). For the same compound, the GI50 in [19], in assay [20], in [21], in [22], in assay [23] and in assay [24] was > 100 µM (inactive) throughout. Besides, the GI50 in assay [25] was > 100 µM (inactive); in assay [26], > 100 µM (inactive); in assay [27] it was 77.4 µM (inactive); in assay [28] it was > 100 µM (inactive); in assay [29], > 100 µM (inactive); in assay [30], > 100 µM (inactive). The GI50 in assay [31], in [32], in assay [33], in [34], in [35] and in assay [36] was > 100 µM (inactive) in each case. Besides, the GI50 in assay [37] is > 100 µM (inactive); in [38], > 100 µM (inactive); in assay [39], greater than 100 µM; in assay [40], > 100 µM (inactive); in [41] it was 57 µM (inactive); in assay [42] it was > 100 µM (inactive). Moreover, the GI50 in assay [43], in [44] and in [45] was > 100 µM (inactive) each time.

Regarding `CC(=O)OCC1OC(n2c(-c3ccc(C)cc3)cc(-c3ccco3)c(C#N)c2=O)C(OC(C)=O)C(OC(C)=O)C1OC(C)=O` (configuration not stated), the GI50 in assay [46] is 2.59 µM (inactive); in assay [34], 2.72 µM (inactive).
